These molecules were tested against T1, Cys12 of the KRAS 4B G12C protein (Homo sapiens, UniProt P01116, G12C) (assay: In vitro covalent adduct formation (CAF) assay, LC-MS intact mass). Conditions: 10 uM compound, 60 min.
T1 construct: This protein contained 188 amino acids in total, including an N-terminal 6-Histidine tag; made in house; host or cells: E. coli BL21
Type: binding
Summary of the method: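 GDP-loaded (>95%) His-TEV-tagged KRAS 4B G12C (residues 1–169), 5 μM in TBS pH 7.4, incubated with 10 μM compound (4% DMSO) at 22° C for one hour. Intact-protein LC-MS gave free:adduct ratios, reported as percent protein modified; duplicate runs.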

Compound	% CAF 10 uM @ 60 min
C=CC(=O)N1CCN(c2nc(=O)n3c4c(c(-c5ccc(F)cc5)c(C(F)(F)F)cc24)SC[C@@H]3CN2CCN(C3CC3)CC2)CC1 [Example 1321, (S)-7-(4-acryloylpiperazin-1-yl)-3-((4-cyclopropylpiperazin-1-yl)methyl)-10-(4-fluorophenyl)-9-(trifluoromethyl)-2H-[1,4]thiazino[2,3,4-ij]quinazolin-5(3H)-one]	99.3%
C=CC(=O)N1C[C@H](C)N(c2nc(=O)n3c4c(c(-c5ccc(F)cc5F)c(C(F)(F)F)cc24)SC[C@@H]3CN2C[C@@H]3C[C@H]2CO3)C[C@H]1C (atropisomer, axis not shown) [Example 1322, (3S,10S)-3-(((1S,4S)-2-oxa-5-azabicyclo[2.2.1]heptan-5-yl)methyl)-7-((2S,5R)-4-acryloyl-2,5-dimethylpiperazin-1-yl)-10-(2,4-difluorophenyl)-9-(trifluoromethyl)-2,3-dihydro-5H-[1,4]thiazino[2,3,4-ij]quinazolin-5-one]	96.2%
C=CC(=O)N1[C@H](C)CN(c2nc(=O)n3c4c(c(-c5cc(Cl)c(F)cc5F)c(C(F)(F)F)cc24)SC[C@@H]3CN2CCN(C3CC3)CC2)C[C@@H]1C (atropisomer, axis not shown) [Example 1349, (3S,10S)-7-((3S,5R)-4-acryloyl-3,5-dimethylpiperazin-1-yl)-10-(5-chloro-2,4-difluorophenyl)-3-((4-cyclopropylpiperazin-1-yl)methyl)-9-(trifluoromethyl)-2,3-dihydro-5H-[1,4]thiazino[2,3,4-ij]quinazolin-5-one]	86.9%
C=CC(=O)N1C[C@H](C)N(c2nc(=O)n3c4c(c(-c5ccc(F)cc5F)c(C(F)(F)F)cc24)SC[C@@H]3COCOC)C[C@H]1C (atropisomer, axis not shown) [Example 1326, (3S,10S)-7-((2S,5R)-4-acryloyl-3,5-dimethylpiperazin-1-yl)-10-(2,4-difluorophenyl)-3-((methoxymethoxy)methyl)-9-(trifluoromethyl)-2,3-dihydro-5H-[1,4]thiazino[2,3,4-ij]quinazolin-5-one]	82.3%
[2H]C([2H])=C([2H])C(=O)N1C[C@H](C)N(c2nc(=O)n3c4c(c(-c5cc(Cl)c(F)cc5F)c(C(F)(F)F)cc24)SCC2(COC2)C3)C[C@H]1C (atropisomer, axis not shown) [Example 1433, (S)-8′-((2S,5R)-4-(Acryloyl-d3)-2,5-dimethylpiperazin-1-yl)-11′-(5-chloro-2,4-difluorophenyl)-10′-(trifluoromethyl)-2′H,4′H,6′H-spiro[oxetane-3,3′-[1,4]thiazepino[2,3,4-ij]quinazolin]-6′-one]	70%
C=CC(=O)N1C[C@H](C)N(c2nc(=O)n3c4c(c(-c5cc(Cl)c(F)cc5F)c(C(F)(F)F)cc24)SC[C@@H]3CN2CCC3(CC2)COC3)C[C@H]1C (atropisomer, axis not shown) [Example 1313, (3S,10R)-3-((2-oxa-7-azaspiro[3.5]nonan-7-yl)methyl)-7-((2S,5R)-4-acryloyl-2,5-dimethylpiperazin-1-yl)-10-(5-chloro-2,4-difluorophenyl)-9-(trifluoromethyl)-2,3-dihydro-5H-[1,4]thiazino[2,3,4-ij]quinazolin-5-one]	96.4%
C=CC(=O)N1C[C@H](C)N(c2nc(=O)n3c4c(c(-c5cccc6cnn(C)c56)c(Cl)cc24)SC[C@@H]3CN2CCN(C3CC3)CC2)C[C@H]1C [Example 1310, (3S)-7-((2S,5R)-4-acryloyl-2,5-dimethylpiperazin-1-yl)-9-chloro-3-((4-cyclopropylpiperazin-1-yl)methyl)-10-(1-methyl-1H-indazol-7-yl)-2,3-dihydro-5H-[1,4]thiazino[2,3,4-ij]quinazolin-5-one]	95%

The remaining lines, values ahead:

% CAF 10 uM @ 60 min	Compound
91%	C=CC(=O)N1[C@H](C)CN(c2nc(=O)n3c4c(c(-c5cc(Cl)c(F)cc5F)c(C(F)(F)F)cc24)SCC(COC)(COC)C3)C[C@@H]1C (atropisomer, axis not shown) [Example 1421, (R)-8-((3S,5R)-4-acryloyl-3,5-dimethylpiperazin-1-yl)-11-(5-chloro-2,4-difluorophenyl)-3,3-bis(methoxymethyl)-10-(trifluoromethyl)-3,4-dihydro-2H,6H-[1,4]thiazepino[2,3,4-ij]quinazolin-6-one]
96.2%	C=CC(=O)N1CCN(c2nc(=O)n3c4c(c(-c5ccc(F)c(Cl)c5)c(C(F)(F)F)cc24)SC[C@@H]3COCOC)CC1 [Example 1362, (S)-7-(4-acryloylpiperazin-1-yl)-10-(3-chloro-4-fluorophenyl)-3-((methoxymethoxy)methyl)-9-(trifluoromethyl)-2,3-dihydro-5H-[1,4]thiazino[2,3,4-ij]quinazolin-5-one]
79%	C=CC(=O)N1[C@H](C)CN(c2nc(=O)n3c4c(c(-c5ccc(F)cc5F)c(C(F)(F)F)cc24)SC[C@@H]3CN2CC[C@H](F)C2)C[C@@H]1C (atropisomer, axis not shown) [Example 1429, (3S,10R)-7-((3S,5R)-4-acryloyl-3,5-dimethylpiperazin-1-yl)-10-(2,4-difluorophenyl)-3-(((S)-3-fluoropyrrolidin-1-yl)methyl)-9-(trifluoromethyl)-2,3-dihydro-5H-[1,4]thiazino[2,3,4-ij]quinazolin-5-one]
77.2%	C=CC(=O)N1[C@H](C)CN(c2nc(=O)n3c4c(c(-c5ccc(F)c(Cl)c5)c(C(F)(F)F)cc24)SC[C@@H]3CN2CCN(C3CC3)CC2)C[C@@H]1C [Example 1372, (S)-7-((3S,5R)-4-acryloyl-3,5-dimethylpiperazin-1-yl)-10-(3-chloro-4-fluorophenyl)-3-((4-cyclopropylpiperazin-1-yl)methyl)-9-(trifluoromethyl)-2,3-dihydro-5H-[1,4]thiazino[2,3,4-ij]quinazolin-5-one]
93%	C=CC(=O)N1[C@H](C)CN(c2nc(=O)n3c4c(c(-c5cc(Cl)c(F)cc5F)c(C(F)(F)F)cc24)SCC(COC)(COC)C3)C[C@@H]1C (atropisomer, axis not shown) [Example 1420, (S)-8-((3S,5R)-4-acryloyl-3,5-dimethylpiperazin-1yl)-11-(5-chloro-2,4-difluorophenyl)-3,3-bis(methoxymethyl)-10-(trifluoromethyl)-3,4-dihydro-2H,6H-[1,4]thiazepino[2,3,4-ij]quinazolin-6-one]

Same assay, conditions: 10 uM compound, 60 min incubation

% CAF 10 uM @ 60 min	Compound
95.6%	C=CC(=O)N1[C@H](C)CN(c2nc(=O)n3c4c(c(-c5cccc6cnn(C)c56)c(C(F)(F)F)cc24)SC[C@@H]3COC)C[C@@H]1C (atropisomer, axis not shown) [Example 1130, (3S,10S)-7-((3S,5R)-4-acryloyl-3,5-dimethylpiperazin-1-yl)-3-(methoxymethyl)-10-(1-methyl-1H-indazol-7-yl)-9-(trifluoromethyl)-2,3-dihydro-5H-[1,4]thiazino [2,3,4-ij]quinazolin-5-one]
99.4%	C=CC(=O)N1CCN(c2nc(=O)n3c4c(c(-c5cccc6cnn(C)c56)c(C(F)(F)F)cc24)SC[C@@H]3COC)CC1 (atropisomer, axis not shown) [Example 1119, (3S,10S)-7-(4-acryloylpiperazin-1-yl)-3-(methoxymethyl)-10-(1-methyl-1H-indazol-7-yl)-9-(trifluoromethyl)-2,3-dihydro-5H-[1,4]thiazino[2,3,4-ij]quinazolin-5-one]

Same assay, conditions: 10 μM compound, after 1 hour

CAF (% after 1 hour)	Compound
59%	C=C(F)C(=O)N1[C@H](C)CN(c2nc(=O)n3c4c(c(-c5ccc(F)cc5)c(C(F)(F)F)cc24)SC[C@@H](OC)C3)C[C@@H]1C [Example 1222, (S)-8-((3S,5R)-4-(2-Fluoroacryloyl)-3,5-dimethylpiperazin-1-yl)-11-(4-fluorophenyl)-3-methoxy-10-(trifluoromethyl)-3,4-dihydro-2H,6H-[1,4]thiazepino[2,3,4-ij]quinazolin-6-one]
93%	C=CC(=O)N1[C@H](C)CN(c2nc(=O)n3c4c(c(-c5ccc(F)cc5)c(C(F)(F)F)cc24)SC[C@@H](OCC(=O)N(C)C)C3)C[C@@H]1C [Example 1232, 2-(((S)-8-((3S,5R)-4-acryloyl-3,5-dimethylpiperazin-1-yl)-11-(4-fluorophenyl)-6-oxo-10-(trifluoromethyl)-3,4-dihydro-2H,6H-[1,4]thiazepino[2,3,4-ij]quinazolin-3-yl)oxy)-N,N-dimethylacetamide]

Same assay, conditions: after 60 min

CAF (% binding after 60 min)	Compound
97%	C=CC(=O)N1CCN(c2nc(=O)n3c4c(c(-c5ccc(F)c(Cl)c5)c(C(F)(F)F)cc24)SC[C@@H](OCOC)C3)CC1 [Example 1007, (S)-8-(4-acryloylpiperazin-1-yl)-11-(3-chloro-4-fluorophenyl)-3-(methoxymethoxy)-10-(trifluoromethyl)-3,4-dihydro-2H,6H-[1,4]thiazepino[2,3,4-ij]quinazolin-6-one]
96%	C=CC(=O)N1CCN(c2nc(=O)n3c4c(c(-c5ccc(F)cc5F)c(C(F)(F)F)cc24)SC[C@H](OCCOC)C3)CC1 [Example 1018, (3R)-8-(4-acryloylpiperazin-1-yl)-11-(2,4-difluorophenyl)-3-(2-methoxyethoxy)-10-(trifluoromethyl)-3,4-dihydro-2H,6H-[1,4]thiazepino[2,3,4-ij]quinazolin-6-one]
95%	C=CC(=O)N1[C@H](C)CN(c2nc(=O)n3c4c(c(-c5ccc(F)c(Cl)c5)c(C(F)(F)F)cc24)SC[C@H](OCOC)C3)C[C@@H]1C [Example 1013, (R)-8-((3S,5R)-4-acryloyl-3,5-dimethylpiperazin-1-yl)-11-(3-chloro-4-fluorophenyl)-3-(methoxymethoxy)-10-(trifluoromethyl)-3,4-dihydro-2H,6H-[1,4]thiazepino[2,3,4-ij]quinazolin-6-one]

Reference: US20230107642A1 (Erasca, Inc., priority 2020, published 2023)
